Test results published in patent US20160022675A1, “PROCESSES FOR PREPARING TETRAHYDROISOQUINOLINES” (BRISTOL-MYERS SQUIBB COMPANY, priority 2013, published 2016).

Assays:
SERT [1] = molecular target: T1, SERT (Mus musculus, UniProt Q60857); experiment: SERT occupancy in the brain, mouse; type: in vivo
T1 construct: from tissue; host or cells: mouse brain
Procedure: (§1) The effects of Compound 1-(4S) in the mouse tail suspension model of depression and target site occupancy were assessed to compare occupancies associated with the behavioral response. The mouse tail suspension model is known the art. […] The lowest effective dose of Compound 1-(4S), 0.3 mg/kg, PO, decreased immobility by 77% relative to vehicle-treated controls. […] Administration of Compound 1-(4S) led to dose-dependent occupancy of SERT, NET, and DAT binding sites in the brain. At the lowest behaviorally-effective dose (0.3 mg/kg), occupancies were 86±1% of SERT, 76±3% of NET, and 28±3% of DAT. At 1 mg/kg, occupancies were 89±1%, 82±1% and 54±3% at SERT, NET, and DAT, respectively. Pharmacokinetics and pharmacodynamics (PD) in mouse, rat, and dog focused primarily on DAT occupancy since SERT and NET occupancies were saturated by drug for most, if not all, of the times studied. DAT occupancy increased as a function of increasing plasma exposure. The DAT occupancy to total plasma level could be fitted using a single binding site model and plasma level ED50 (the dose producing 50% effect) values could be calculated.
(§2) To better understand the margin between doses of Compound 1-(4S) that are effective in the mouse tail suspension models and those that lead to monoamine-related side effects, locomotor activity was examined to assess psychostimulant properties and stereotypy was examined to assess more severe DA-related side effects. Increased body temperature, another effect that has been attributed to DA pharmacology, was also studied. In the mouse, Compound 1-(4S) increased locomotor activity and stereotypy scores at doses of 3.0 mg/kg and 10 mg/kg, respectively. Thus, the margin between the Compound 1-(4S) effective dose in the mouse tail suspension and increased locomotor activity was 10-fold and the margin versus activity in stereotypy was 30-fold. The thermogenic effect of Compound 1-(4S) was studied in mice and rats by measuring changes in rectal temperature following administration of the compound. […] The onset of the thermogenesis was earlier as the dose was increased. […]

Distribution coefficient = type: physicochemical
stereotypy = experiment: Stereotypy, mouse; type: in vivo
Source text: (§3) To better understand the margin between doses of Compound 1-(4S) that are effective in the mouse tail suspension models and those that lead to monoamine-related side effects, locomotor activity was examined to assess psychostimulant properties and stereotypy was examined to assess more severe DA-related side effects. Increased body temperature, another effect that has been attributed to DA pharmacology, was also studied. In the mouse, Compound 1-(4S) increased locomotor activity and stereotypy scores at doses of 3.0 mg/kg and 10 mg/kg, respectively. Thus, the margin between the Compound 1-(4S) effective dose in the mouse tail suspension and increased locomotor activity was 10-fold and the margin versus activity in stereotypy was 30-fold. The thermogenic effect of Compound 1-(4S) was studied in mice and rats by measuring changes in rectal temperature following administration of the compound. […] The onset of the thermogenesis was earlier as the dose was increased. The levels of SERT and NET occupancy were over 80% and appeared saturated across the doses tested. The DAT occupancy was dose-dependent, with 55±5.7% at 1.0 mg/kg, 74±6% at 3.0 mg/kg, and 83±0.8% at 10 mg/kg. […] The onset of the temperature increase was earlier at the highest dose of 10 mg/kg. […] The DAT occupancy was 37±8.3%, 55±5.2%, and 71±1.7% at 1.0, 3.0, and 10 mg/kg, respectively. […]

SERT [2] = molecular target: SERT (Homo sapiens, UniProt P31645); experiment: Competition binding, membranes from HEK cells overexpressing SERT; parameters: expressed in transfected cells; host or cells: HEK cells (membranes)
Procedure: (§4) Competition binding experiments were performed to determine the in vitro binding potencies (IC50 values) of Compound 1-(4S) for SERT, DAT, and NET. Membranes prepared from human embryonic kidney (HEK) cells overexpressing each transporter were employed. Radioligands were used at their respective affinity constant (Kd) concentrations for each transporter to enable direct comparisons of the IC50 values between assays.

rectal temperature [3] = experiment: Thermogenic effect (rectal temperature), rat; type: in vivo
Source text: (§5) To better understand the margin between doses of Compound 1-(4S) that are effective in the mouse tail suspension models and those that lead to monoamine-related side effects, locomotor activity was examined to assess psychostimulant properties and stereotypy was examined to assess more severe DA-related side effects. Increased body temperature, another effect that has been attributed to DA pharmacology, was also studied. In the mouse, Compound 1-(4S) increased locomotor activity and stereotypy scores at doses of 3.0 mg/kg and 10 mg/kg, respectively. Thus, the margin between the Compound 1-(4S) effective dose in the mouse tail suspension and increased locomotor activity was 10-fold and the margin versus activity in stereotypy was 30-fold. The thermogenic effect of Compound 1-(4S) was studied in mice and rats by measuring changes in rectal temperature following administration of the compound. […] The onset of the thermogenesis was earlier as the dose was increased. The levels of SERT and NET occupancy were over 80% and appeared saturated across the doses tested. The DAT occupancy was dose-dependent, with 55±5.7% at 1.0 mg/kg, 74±6% at 3.0 mg/kg, and 83±0.8% at 10 mg/kg. […] The onset of the temperature increase was earlier at the highest dose of 10 mg/kg. […] The DAT occupancy was 37±8.3%, 55±5.2%, and 71±1.7% at 1.0, 3.0, and 10 mg/kg, respectively. Consistent with data obtained with mice, the thermogenic effect of Compound 1-(4S) is dose dependently related to DAT occupancy and at least 50% DAT occupancy is needed for this effect.

SERT [4] = molecular target: T2, SERT (Rattus norvegicus, UniProt P31652); experiment: SERT occupancy, rat; type: in vivo; conditions: thermogenesis study, all 3 doses (1.0, 3.0, 10 mg/kg)
T2 construct: from tissue; host or cells: rat, in vivo dosing
Source text: as §3

rectal temperature [5] = experiment: Thermogenic effect (rectal temperature), mouse; type: in vivo; conditions: 4 hours after doses of 1, 3, and 10 mg/kg
Source text: as §3

[6] = system: mouse tail suspension model of depression; experiment: Mouse tail suspension model of depression; type: in vivo; conditions: PO
Procedure: as §1

DAT [7] = molecular target: T3, DAT (Homo sapiens, UniProt Q01959); experiment: Competition binding, membranes from HEK cells overexpressing DAT; parameters: expressed in transfected cells; host or cells: HEK cells (membranes); conditions: radioligand at Kd concentration; HEK cell membranes
Procedure: as §4

Stability = type: physicochemical; conditions: with protection from light
NET [8] = molecular target: T4, NET (Mus musculus, UniProt O55192); experiment: NET occupancy in the brain, mouse; type: in vivo
T4 construct: from tissue; host or cells: mouse brain
Procedure: as §1, §2

DAT [9] = molecular target: T3, DAT; experiment: [3H]DA uptake into HEK293/hDAT cells; type: cell-based; parameters: expressed in transfected cells; host or cells: HEK293; conditions: read-out: Dopamine reuptake IC50 ([3H]DA uptake)
Source text: Cell-based assays were used to determine the ability of Compound 1-(4S) to inhibit reuptake of 3H-labeled DA ([3H]DA), NE ([3H]NE), and 5-HT ([3H]5-HT).

[10] = pH-Solubility profile (aqueous); type: physicochemical; conditions: aqueous solution, aqueous buffer; solution pH 6.5 and above
locomotor activity = experiment: Locomotor activity, mouse; type: in vivo
Source text: as §3

NET [11] = molecular target: NET (Homo sapiens, UniProt P23975); experiment: Competition binding, membranes from HEK cells overexpressing NET; parameters: expressed in transfected cells; host or cells: HEK cells (membranes); conditions: radioligand at Kd concentration; HEK cell membranes
Procedure: as §4

Solution pH = type: physicochemical; conditions: at about 1 μg/mL concentration in water
DAT [12] = molecular target: T5, DAT (Mus musculus, UniProt Q61327); experiment: DAT occupancy in the brain, mouse; type: in vivo
T5 construct: from tissue; host or cells: mouse brain
Procedure: as §1, §5

[13] = mouse brain, 0.3 mg/kg, tail suspension study
[14] = mouse brain, 1 mg/kg, tail suspension study
[15] = mouse, thermogenesis study, across doses 1, 3, 10 mg/kg

T4 sequence (O55192 whole entry): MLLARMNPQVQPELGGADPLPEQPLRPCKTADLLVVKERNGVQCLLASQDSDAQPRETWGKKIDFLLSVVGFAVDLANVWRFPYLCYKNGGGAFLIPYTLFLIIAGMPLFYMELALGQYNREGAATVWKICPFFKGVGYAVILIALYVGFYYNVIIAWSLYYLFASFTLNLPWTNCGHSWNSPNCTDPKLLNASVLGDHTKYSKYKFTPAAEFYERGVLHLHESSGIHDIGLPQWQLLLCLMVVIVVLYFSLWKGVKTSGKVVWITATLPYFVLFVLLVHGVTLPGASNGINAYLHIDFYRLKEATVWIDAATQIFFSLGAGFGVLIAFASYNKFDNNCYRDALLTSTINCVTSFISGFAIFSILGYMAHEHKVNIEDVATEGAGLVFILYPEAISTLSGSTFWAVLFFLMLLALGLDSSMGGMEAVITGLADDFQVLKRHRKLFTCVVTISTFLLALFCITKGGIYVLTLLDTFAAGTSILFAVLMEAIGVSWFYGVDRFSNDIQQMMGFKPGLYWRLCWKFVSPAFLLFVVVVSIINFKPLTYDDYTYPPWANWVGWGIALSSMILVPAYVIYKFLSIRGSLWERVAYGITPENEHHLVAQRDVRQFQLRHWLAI
T1 sequence (Q60857 whole entry): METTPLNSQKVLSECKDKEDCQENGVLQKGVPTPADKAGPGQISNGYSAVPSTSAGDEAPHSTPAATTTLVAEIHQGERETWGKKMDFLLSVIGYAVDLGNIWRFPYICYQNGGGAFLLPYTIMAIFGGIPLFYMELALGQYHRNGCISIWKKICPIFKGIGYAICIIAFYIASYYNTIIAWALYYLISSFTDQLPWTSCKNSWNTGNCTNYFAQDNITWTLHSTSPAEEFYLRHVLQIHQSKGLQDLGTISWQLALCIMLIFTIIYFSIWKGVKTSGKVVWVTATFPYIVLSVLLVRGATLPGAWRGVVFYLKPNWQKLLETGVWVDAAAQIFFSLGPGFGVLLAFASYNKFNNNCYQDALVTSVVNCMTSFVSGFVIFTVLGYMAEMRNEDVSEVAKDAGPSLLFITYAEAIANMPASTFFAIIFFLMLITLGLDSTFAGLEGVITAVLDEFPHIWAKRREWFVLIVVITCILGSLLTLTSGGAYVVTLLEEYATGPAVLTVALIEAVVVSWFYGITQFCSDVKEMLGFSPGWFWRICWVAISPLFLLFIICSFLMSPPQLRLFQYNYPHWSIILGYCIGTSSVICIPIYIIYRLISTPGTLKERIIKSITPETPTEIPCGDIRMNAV
T5 sequence (Q61327 whole entry): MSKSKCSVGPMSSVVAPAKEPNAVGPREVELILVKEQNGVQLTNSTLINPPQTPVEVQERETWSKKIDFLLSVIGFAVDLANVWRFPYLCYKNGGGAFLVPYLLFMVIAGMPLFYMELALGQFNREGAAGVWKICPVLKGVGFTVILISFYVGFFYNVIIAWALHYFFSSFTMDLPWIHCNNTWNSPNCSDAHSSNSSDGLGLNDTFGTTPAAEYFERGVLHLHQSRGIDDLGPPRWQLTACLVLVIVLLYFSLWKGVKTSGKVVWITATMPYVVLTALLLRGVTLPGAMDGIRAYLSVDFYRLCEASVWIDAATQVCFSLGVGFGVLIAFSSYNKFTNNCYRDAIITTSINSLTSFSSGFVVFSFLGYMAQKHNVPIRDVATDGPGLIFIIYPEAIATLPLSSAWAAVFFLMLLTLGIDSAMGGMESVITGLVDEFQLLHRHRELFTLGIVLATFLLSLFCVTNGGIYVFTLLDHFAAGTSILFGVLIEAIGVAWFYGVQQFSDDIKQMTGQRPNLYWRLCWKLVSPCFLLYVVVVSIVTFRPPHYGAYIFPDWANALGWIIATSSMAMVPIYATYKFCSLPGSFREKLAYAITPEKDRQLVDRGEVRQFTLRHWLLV
T3 sequence (Q01959 whole entry): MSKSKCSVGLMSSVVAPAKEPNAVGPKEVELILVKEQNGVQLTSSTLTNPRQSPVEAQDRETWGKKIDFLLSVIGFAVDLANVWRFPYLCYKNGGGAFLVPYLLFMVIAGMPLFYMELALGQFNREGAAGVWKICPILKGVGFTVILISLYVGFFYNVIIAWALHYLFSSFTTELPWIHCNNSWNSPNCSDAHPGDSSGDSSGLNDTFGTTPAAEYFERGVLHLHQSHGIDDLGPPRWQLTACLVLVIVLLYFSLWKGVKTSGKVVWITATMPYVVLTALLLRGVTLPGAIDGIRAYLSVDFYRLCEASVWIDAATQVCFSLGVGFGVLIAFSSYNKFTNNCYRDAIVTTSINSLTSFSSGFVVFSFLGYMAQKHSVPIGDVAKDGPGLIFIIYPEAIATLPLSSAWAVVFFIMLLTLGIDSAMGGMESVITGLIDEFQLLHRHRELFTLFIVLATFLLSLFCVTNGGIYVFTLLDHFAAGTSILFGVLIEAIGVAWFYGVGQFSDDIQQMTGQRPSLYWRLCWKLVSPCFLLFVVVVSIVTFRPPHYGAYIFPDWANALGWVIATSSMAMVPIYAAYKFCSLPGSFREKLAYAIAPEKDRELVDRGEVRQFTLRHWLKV
Sequence of NET (Homo sapiens, UniProt P23975) (P23975 whole entry): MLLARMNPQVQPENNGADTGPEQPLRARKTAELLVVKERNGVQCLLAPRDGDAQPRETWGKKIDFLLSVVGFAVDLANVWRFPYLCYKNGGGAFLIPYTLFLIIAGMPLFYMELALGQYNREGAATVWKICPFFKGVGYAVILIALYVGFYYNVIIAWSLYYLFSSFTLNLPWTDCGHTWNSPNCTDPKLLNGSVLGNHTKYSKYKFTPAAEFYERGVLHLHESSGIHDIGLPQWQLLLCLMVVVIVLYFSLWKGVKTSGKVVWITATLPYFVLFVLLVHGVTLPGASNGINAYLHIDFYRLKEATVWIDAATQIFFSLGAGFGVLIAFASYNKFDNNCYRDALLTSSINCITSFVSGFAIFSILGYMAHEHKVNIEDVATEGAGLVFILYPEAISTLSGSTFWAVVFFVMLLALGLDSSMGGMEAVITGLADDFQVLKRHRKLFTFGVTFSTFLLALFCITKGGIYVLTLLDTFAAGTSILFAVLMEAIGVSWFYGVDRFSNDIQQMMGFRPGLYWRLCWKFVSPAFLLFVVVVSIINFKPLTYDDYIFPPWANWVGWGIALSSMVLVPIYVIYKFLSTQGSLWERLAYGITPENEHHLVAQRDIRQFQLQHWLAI
Sequence of SERT (Homo sapiens, UniProt P31645) (P31645 whole entry): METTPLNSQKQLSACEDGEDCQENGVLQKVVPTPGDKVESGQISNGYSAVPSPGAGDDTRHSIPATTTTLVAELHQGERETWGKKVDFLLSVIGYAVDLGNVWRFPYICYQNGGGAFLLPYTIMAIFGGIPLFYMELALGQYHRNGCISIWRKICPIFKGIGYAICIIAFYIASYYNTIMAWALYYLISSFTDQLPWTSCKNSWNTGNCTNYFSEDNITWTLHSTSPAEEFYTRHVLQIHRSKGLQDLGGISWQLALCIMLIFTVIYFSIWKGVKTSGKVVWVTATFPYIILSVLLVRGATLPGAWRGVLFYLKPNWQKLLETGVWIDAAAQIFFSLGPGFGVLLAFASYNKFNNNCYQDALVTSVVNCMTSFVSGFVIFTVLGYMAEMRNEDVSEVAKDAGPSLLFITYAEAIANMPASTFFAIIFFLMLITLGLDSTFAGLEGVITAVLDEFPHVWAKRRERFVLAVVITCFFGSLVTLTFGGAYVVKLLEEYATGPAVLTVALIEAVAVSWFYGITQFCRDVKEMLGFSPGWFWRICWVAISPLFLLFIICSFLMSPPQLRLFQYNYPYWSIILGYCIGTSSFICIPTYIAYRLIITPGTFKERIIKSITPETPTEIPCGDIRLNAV
T2 sequence (P31652 whole entry): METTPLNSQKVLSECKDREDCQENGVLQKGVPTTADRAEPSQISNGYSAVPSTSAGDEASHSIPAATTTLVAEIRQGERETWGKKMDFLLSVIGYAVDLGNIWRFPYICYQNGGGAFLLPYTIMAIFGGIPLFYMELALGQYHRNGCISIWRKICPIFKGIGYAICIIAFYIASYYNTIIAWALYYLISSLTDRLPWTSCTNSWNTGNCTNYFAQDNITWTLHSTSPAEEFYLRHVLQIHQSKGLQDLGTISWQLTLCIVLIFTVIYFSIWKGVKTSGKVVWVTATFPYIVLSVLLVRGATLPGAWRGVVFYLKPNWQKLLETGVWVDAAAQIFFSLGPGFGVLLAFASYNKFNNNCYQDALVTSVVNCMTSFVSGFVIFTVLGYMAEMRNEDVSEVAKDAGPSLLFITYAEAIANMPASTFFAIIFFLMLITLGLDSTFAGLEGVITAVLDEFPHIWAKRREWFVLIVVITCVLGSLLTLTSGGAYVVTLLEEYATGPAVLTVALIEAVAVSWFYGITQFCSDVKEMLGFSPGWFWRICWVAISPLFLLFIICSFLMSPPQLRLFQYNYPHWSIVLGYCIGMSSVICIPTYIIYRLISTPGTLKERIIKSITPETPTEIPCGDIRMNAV

In the case of `CN1Cc2cc(-c3ccc(N)nn3)ccc2[C@H](c2ccc3ccccc3c2)C1` [Compound 1-(4S), 6-[(4S)-1,2,3,4-tetrahydro-2-methyl-4-(2-naphthalenyl)-7-isoquinolinyl]-3-pyridazinamine], the receptor occupancy at 0.3 mg/kg (SERT [1]; [13]) is reported as 86 ± 1%, the receptor occupancy at 1 mg/kg (SERT [1]; [14]) is reported as 89 ± 1% and the SERT occupancy (SERT [1]; [15]) is reported as “over 80%”. The “Distribution coefficient Log Do/b” value (Distribution coefficient; pH 6.5) was 3.10, the “Distribution coefficient Log Do/b” value (Distribution coefficient; pH 7.4) was 3.82 and the “dose that increased stereotypy scores” value (stereotypy) was 10 mg/kg. For the same compound, the “margin between effective dose in mouse tail suspension and activity in stereotypy” value (stereotypy) was 30 fold, the IC50 (SERT [2]) was 1.08 ± 0.09 nM and the “significant increase in rectal temperature” value (rectal temperature [3]; rat, 1.0 mg/kg) was “not”. The “change in rectal temperature” value (rectal temperature [3]; rat, doses of 3.0 and 10 mg/kg) was “Significant increases”, the “DAT occupancy needed for the thermogenic effect” value (rectal temperature [3]; rats, consistent with mice) was “at least 50%” and the SERT occupancy (SERT [4]) was “nearly saturated”. The “change in rectal temperature” value (rectal temperature [5]) was “significant increases”, the “decrease in immobility relative to vehicle-treated controls” value ([6]; 0.3 mg/kg) was 77% and the decrease in immobility ([6]; 1.0 mg/kg) was 91%. For the same compound, the “lowest effective dose, tail suspension” value [6] was 0.3 mg/kg, the IC50 (DAT [7]) was 5.67 ± 0.36 nM and the Stability (Stability) was “Compound 1-(4S) is stable up to 25 °C with protection”. For the same compound, the receptor occupancy at 0.3 mg/kg (NET [8]; [13]) was 76 ± 3%, the receptor occupancy at 1 mg/kg (NET [8]; [14]) was 82 ± 1% and the NET occupancy (NET [8]; [15]) was “over 80%”. The IC50 (DAT [9]) was 31.5 ± 2.5 nM, the solubility [10] was no more than 1 µg/mL and the “dose that increased locomotor activity” value (locomotor activity) was 3.0 mg/kg. The “margin between effective dose in mouse tail suspension and increased locomotor activity” value (locomotor activity) was 10 fold, the IC50 (NET [11]) was 7.99 ± 0.43 nM and the “Solution pH” value (Solution pH) was ~7.0 at about 1 μg/mL concentration in water. It also gave a receptor occupancy at 0.3 mg/kg (DAT [12]; [13]) of 28 ± 3%, a receptor occupancy at 1 mg/kg (DAT [12]; [14]) of 54 ± 3% and an EC50 (DAT [12]; single binding site model, read-out: total plasma concentration producing 50% effect (EC50), DAT occupancy) of 1190 nM. It also gave a receptor occupancy at 1 mg/kg (DAT [12]; thermogenesis study, 1.0 mg/kg) of 55 ± 5.7%, a receptor occupancy at 3 mg/kg (DAT [12]; thermogenesis study, 3.0 mg/kg) of 74 ± 6% and a receptor occupancy at 10 mg/kg (DAT [12]; thermogenesis study, 10 mg/kg) of 83 ± 0.8%.
